# According to ChEMBL document CHEMBL1138277, “Synthesis and in vivo activity of MK2 and MK2 substrate-selective p38alpha(MAPK) inhibitors in Werner syndrome cells” (Bioorg Med Chem Lett, 2007):
# pIC50: −log10 of the molar value. Calls of active or inactive are those of the source. The rule behind the calls is not given here.
# Columns and labels:
# [1] = target: MAP kinase p38 (Homo sapiens) (UniProt O15264+Q15759+Q16539+P53778); experiment: Inhibition of p38 mediated MK2 activation in HCA2 cells at 25 uM; type: cell-based
# HCA2 = experiment: Growth inhibition of HCA2 cells above 2.5 uM; type: functional, cell-based; conditions: Homo sapiens
# [2] = target: T1, MAP kinase-activated protein kinase 2 (Homo sapiens, UniProt P49137); experiment: Inhibition of MK2 in human TERT immortalised HCA2 cells assessed as inhibition of anisomycin-induced HSP27 phosphorylation at 2.5 uM by ELISA; type: cell-based
# [3] = target: T1, MAP kinase-activated protein kinase 2; experiment: Inhibition of MK2 in human TERT immortalised HCA2 cells assessed as maximal inhibition of anisomycin-induced HSP27 phosphorylation at 25 uM by ELISA; type: cell-based
# Target sequence in this assay (P49137 whole entry, looked up): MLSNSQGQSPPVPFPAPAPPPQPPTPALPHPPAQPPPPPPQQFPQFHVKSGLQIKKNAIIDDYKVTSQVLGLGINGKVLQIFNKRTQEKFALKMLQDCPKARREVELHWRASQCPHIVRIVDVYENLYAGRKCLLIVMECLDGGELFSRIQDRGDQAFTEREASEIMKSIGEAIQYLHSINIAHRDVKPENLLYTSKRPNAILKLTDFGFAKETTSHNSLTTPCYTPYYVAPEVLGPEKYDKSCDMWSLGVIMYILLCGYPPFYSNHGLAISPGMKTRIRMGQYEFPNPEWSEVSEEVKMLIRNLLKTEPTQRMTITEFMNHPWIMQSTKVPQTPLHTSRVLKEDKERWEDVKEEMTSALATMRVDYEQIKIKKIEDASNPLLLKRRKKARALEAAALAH
# WS [4] = experiment: Growth inhibition of WS cells above 2.5 uM; type: functional, cell-based; conditions: Homo sapiens
# [5] = target: T1, MAP kinase-activated protein kinase 2; experiment: Inhibition of MK2 in human TERT immortalised HCA2 cells assessed as inhibition of anisomycin-induced HSP27 phosphorylation by ELISA; type: cell-based
# Target sequence in this assay (P49137 whole entry): as the sequence (P49137 whole entry, looked up) above
# Homo sapiens = organism: Homo sapiens; experiment: Inhibition of JNK
# [6] = target: T1, MAP kinase-activated protein kinase 2; experiment: Inhibition of MK2 mediated HSP27 phosphorylation in immortalised WS cells assessed as reduction in F-actin stress fibres; type: cell-based
# Target sequence in this assay (P49137 whole entry, looked up): as above
# [7] = target: T1, MAP kinase-activated protein kinase 2; experiment: Inhibition of MK2 mediated HSP27 phosphorylation in immortalised WS cells assessed as reduction in F-actin stress fibres at 25 uM after 6 days; type: cell-based
# Target sequence in this assay (P49137 whole entry, looked up): as above
# WS [8] = experiment: Growth inhibition of WS cells above 200 nM; type: functional, cell-based; conditions: Homo sapiens
Compound,Activity [1],Activity (HCA2),Activity [2],Activity [3],Activity (WS [4]),pIC50 [5],Activity (Homo sapiens),Activity [6],Activity [7],Activity (WS [8]),Ki app [2] [nM]
N#Cc1c(N)nc2c(c1N)Cc1cc(O)c(O)cc1O2,inactive,Active,Active,Active,Active,5.60,inactive,Active,Active,,
C[S+]([O-])c1ccc(-c2nc(-c3ccc(F)cc3)c(-c3ccncc3)[nH]2)cc1 (stereo not drawn),,,,,,,,Active,,,
O=C(CCCc1ccc(-c2ccccc2F)cc1)Nc1ccc(O)cc1,,,,,,,inactive,,,Active,330
